# Where two headings read alike, the source gives them in different places.
# Columns and labels:
# [1] = tested on: ES-2 (clear cell carcinoma) ovarian cancer cell line; test: CyQuant NF cell proliferation assay (DNA content), single agents and paired combinations, ES-2; type: cell-based
# Excerpt: (§1) Ovarian cancer cell lines: ES-2 (clear cell carcinoma) and SKOV-3 (adenocarcinoma), were used to investigate the pharmacodynamic interactions resulting from the paired combination of Radium-224 (^224Ra) with a DNA repair inhibitor exemplified by the poly (ADP-ribose) polymerase inhibitors (PARPi); niraparib and olaparib.
# [2] = tested on: SKOV-3 (adenocarcinoma) ovarian cancer cell line; test: CyQuant NF cell proliferation assay (DNA content), single agents and paired combinations, SKOV-3; type: cell-based; settings: Homo sapiens
# Excerpt: as §1
# [3] = 72 h, ES-2, Day 3, PARPi in paired combination with 224Ra, read-out: Paired combination IC50
# [4] = 72 h, ES-2, Day 3, single agent, read-out: Single agent IC50
# [5] = 96 h, ES-2, Day 4, PARPi in paired combination with 224Ra, read-out: Paired combination IC50
# [6] = 96 h, ES-2, Day 4, single agent, read-out: Single agent IC50
# [7] = 120 h, ES-2, Day 5, PARPi in paired combination with 224Ra, read-out: Paired combination IC50
# [8] = 120 h, ES-2, Day 5, single agent, read-out: Single agent IC50
# [9] = SK-OV-3, 72 h, SKOV-3, Day 3, PARPi in paired combination with 224Ra, read-out: Paired combination IC50
# [10] = SK-OV-3, 72 h, SKOV-3, Day 3, single agent, read-out: Single agent IC50
# [11] = SK-OV-3, 96 h, SKOV-3, Day 4, PARPi in paired combination with 224Ra, read-out: Paired combination IC50
# [12] = SK-OV-3, 96 h, SKOV-3, Day 4, single agent, read-out: Single agent IC50
# [13] = SK-OV-3, 120 h, SKOV-3, Day 5, PARPi in paired combination with 224Ra, read-out: Paired combination IC50
# [14] = SK-OV-3, 120 h, SKOV-3, Day 5, single agent, read-out: Single agent IC50
structure (smiles),measurement,setting,value
"NC(=O)c1cccc2cn(-c3ccc([C@@H]4CCCNC4)cc3)nc12 [Niraparib, niraparib]",IC50,[1]; [3],420 nM
same,IC50,[1]; [4],690 nM
same,IC50,[1]; [5],250 nM
same,IC50,[1]; [6],780 nM
same,IC50,[1]; [7],360 nM
same,IC50,[1]; [8],620 nM
same,IC50,[2]; [9],2450 nM
same,IC50,[2]; [10],5160 nM
same,IC50,[2]; [11],430 nM
same,IC50,[2]; [12],2830 nM
same,IC50,[2]; [13],220 nM
same,IC50,[2]; [14],2200 nM
"O=C(c1cc(Cc2n[nH]c(=O)c3ccccc23)ccc1F)N1CCN(C(=O)C2CC2)CC1 [Olaparib, olaparib]",IC50,[1]; [3],1430 nM
same,IC50,[1]; [4],3510 nM
same,IC50,[1]; [5],500 nM
same,IC50,[1]; [6],1230 nM
same,IC50,[1]; [7],930 nM
same,IC50,[1]; [8],2210 nM
same,IC50,[2]; [9],10200 nM
same,IC50,[2]; [10],21400 nM
same,IC50,[2]; [11],2670 nM
same,IC50,[2]; [12],23600 nM
same,IC50,[2]; [13],810 nM
same,IC50,[2]; [14],1830 nM

# — patent US20230330280A1, “PREPARATIONS OF RADIUM-224 AND PROGENIES FOR USE IN RADIONUCLIDE THERAPY IN COMBINATION WITH DNA REPAIR INHIBITORS” (priority 2020, published 2023)
